Drawing on US4868321A, “Isothiocyanate intermediates” (FMC Corporation, priority 1988, dated 1989), this text covers plant injury and pest or weed control for 5 compounds.

Holding throughout (format): in vivo
The test system of experiment [1] is Field Corn. Put plainly: Preemergence Herbicidal Activity, Field Corn. The following applies: Zea mays, pre-emergence; for plant injury at 500 g/ha: 0.5 kg/ha; for plant injury at 1000 g/ha: 1.0 kg/ha. The text has this: (§1) The herbicidal data in the following Tables 3 and 4 was obtained in the manner described in PCT published application no. […] In those tables, the test compounds are identified by numbers which correspond to those in Table 1, "kg/ha" is kilograms per hectare, and "% C" is percent control.

For experiment [2], the system named is Cotton. Put plainly: Preemergence Herbicidal Activity, Cotton. The following applies: Gossypium hirsutum, pre-emergence; for plant injury at 500 g/ha: 0.5 kg/ha; for plant injury at 1000 g/ha: 1.0 kg/ha. The text has this:
(§2) The herbicidal data in the following Tables 3 and 4 was obtained in the manner described in PCT published application no. WO 85/01939, previously mentioned, usually employing solutions of the herbicidal compound in 50/50 acetone/water mixtures. In those tables, the test compounds are identified by numbers which correspond to those in Table 1, "kg/ha" is kilograms per hectare, and "% C" is percent control.

In experiment [3] the test system is Velvetleaf. Put plainly: Preemergence Herbicidal Activity, Velvetleaf. Conditions: Abutilon theophrasti, pre-emergence; for pest or weed control at 500 g/ha: 0.5 kg/ha; for pest or weed control at 1000 g/ha: 1.0 kg/ha.
Text: as §2

Experiment [4] relates to Velvetleaf. The experiment in a line: Postemergence Herbicidal Activity, Velvetleaf. The following applies: Abutilon theophrasti, post-emergence; for pest or weed control at 500 g/ha: 0.5 kg/ha; for pest or weed control at 1000 g/ha: 1.0 kg/ha.
Text: as §2

For experiment [5], the system named is Barnyardgrass. Put plainly: Preemergence Herbicidal Activity, Barnyardgrass. Conditions: Echinochloa crus-galli, pre-emergence; for pest or weed control at 500 g/ha: 0.5 kg/ha; for pest or weed control at 1000 g/ha: 1.0 kg/ha.
Text: as §1

The test system of experiment [6] is Green Foxtail. Put plainly: Preemergence Herbicidal Activity, Green Foxtail. Conditions: Setaria viridis, pre-emergence; for pest or weed control at 500 g/ha: 0.5 kg/ha; for pest or weed control at 1000 g/ha: 1.0 kg/ha.
Text: as §1

For experiment [7], the system named is Wheat. The experiment in a line: Preemergence Herbicidal Activity, Wheat. The following applies: Triticum aestivum, pre-emergence; for plant injury at 500 g/ha: 0.5 kg/ha; for plant injury at 1000 g/ha: 1.0 kg/ha.
Text: as §1

For experiment [8], the system named is Wheat. The experiment in a line: Postemergence Herbicidal Activity, Wheat. The following applies: Triticum aestivum, post-emergence; for plant injury at 500 g/ha: 0.5 kg/ha; for plant injury at 1000 g/ha: 1.0 kg/ha.
Text: as §1

The test system of experiment [9] is Soybean. Put plainly: Postemergence Herbicidal Activity, Soybean. The following applies: Glycine max, post-emergence; for plant injury at 500 g/ha: 0.5 kg/ha; for plant injury at 1000 g/ha: 1.0 kg/ha.
Text: as §1

The test system of experiment [10] is Field Corn. Put plainly: Postemergence Herbicidal Activity, Field Corn. The following applies: Zea mays, post-emergence; for plant injury at 500 g/ha: 0.5 kg/ha; for plant injury at 1000 g/ha: 1.0 kg/ha.
Text: as §1

Experiment [11] concerns Rice. Put plainly: Postemergence Herbicidal Activity, Rice. Conditions: Oryza sativa, post-emergence; for plant injury at 500 g/ha: 0.5 kg/ha; for plant injury at 1000 g/ha: 1.0 kg/ha.
Text: as §1

The test system of experiment [12] is Barnyardgrass. The experiment in a line: Postemergence Herbicidal Activity, Barnyardgrass. The following applies: Echinochloa crus-galli, post-emergence; for pest or weed control at 500 g/ha: 0.5 kg/ha; for pest or weed control at 1000 g/ha: 1.0 kg/ha.
Text: as §1

Experiment [13] concerns Johnsongrass. Put plainly: Postemergence Herbicidal Activity, Johnsongrass. Conditions: Sorghum halepense, post-emergence; for pest or weed control at 500 g/ha: 0.5 kg/ha; for pest or weed control at 1000 g/ha: 1.0 kg/ha.
Text: as §1

In experiment [14] the test system is Rice. Put plainly: Preemergence Herbicidal Activity, Rice. Conditions: Oryza sativa, pre-emergence; for plant injury at 500 g/ha: 0.5 kg/ha; for plant injury at 1000 g/ha: 1.0 kg/ha.
Text: as §1

Experiment [15] deals with Green Foxtail. The experiment in a line: Postemergence Herbicidal Activity, Green Foxtail. The following applies: Setaria viridis, post-emergence; for pest or weed control at 500 g/ha: 0.5 kg/ha; for pest or weed control at 1000 g/ha: 1.0 kg/ha.
Text: as §1

Experiment [16] has as its system Johnsongrass. The experiment in a line: Preemergence Herbicidal Activity, Johnsongrass. Conditions: Sorghum halepense, pre-emergence; for pest or weed control at 500 g/ha: 0.5 kg/ha; for pest or weed control at 1000 g/ha: 1.0 kg/ha.
Text: as §1

Experiment [17] concerns Field Bindweed. Put plainly: Preemergence Herbicidal Activity, Field Bindweed. The following applies: pre-emergence; for pest or weed control at 500 g/ha: 0.5 kg/ha; for pest or weed control at 1000 g/ha: 1.0 kg/ha.
Text: as §2

The subject of experiment [18] is Soybean. The experiment in a line: Preemergence Herbicidal Activity, Soybean. Conditions: Glycine max, pre-emergence; for plant injury at 500 g/ha: 0.5 kg/ha; for plant injury at 1000 g/ha: 1.0 kg/ha.
Text: as §1

For experiment [19], the system named is Cotton. Put plainly: Postemergence Herbicidal Activity, Cotton. Conditions: Gossypium hirsutum, post-emergence; for plant injury at 500 g/ha: 0.5 kg/ha; for plant injury at 1000 g/ha: 1.0 kg/ha.
Text: as §2

For experiment [20], the system named is Morningglory. Put plainly: Preemergence Herbicidal Activity, Morningglory. The following applies: Ipomoea, pre-emergence; for pest or weed control at 500 g/ha: 0.5 kg/ha; for pest or weed control at 1000 g/ha: 1.0 kg/ha.
Text: as §2

Experiment [21] concerns Morningglory. The experiment in a line: Postemergence Herbicidal Activity, Morningglory. Conditions: Ipomoea, post-emergence; for pest or weed control at 500 g/ha: 0.5 kg/ha; for pest or weed control at 1000 g/ha: 1.0 kg/ha.
Text: as §2

Experiment [22] deals with Field Bindweed. The experiment in a line: Postemergence Herbicidal Activity, Field Bindweed. The following applies: post-emergence; for pest or weed control at 500 g/ha: 0.5 kg/ha; for pest or weed control at 1000 g/ha: 1.0 kg/ha.
Text: as §2

Regarding `CS(=O)(=O)N(c1cc(-n2nnn(CCCF)c2=O)c(F)cc1F)S(C)(=O)=O` [Compound 8, 1-[2,4-difluoro-5-[bis(N--methylsulfonyl)amino]phenyl]-1,4-dihydro-4-(3-fluoropropyl)-5H--tetrazol-5-one], the plant injury at 500 g/ha stood at 40% in [1]; 95% in experiment [2]; 10% in [7]; 30% in [8]; 40% in experiment [9]; 50% in experiment [10]. The plant injury at 500 g/ha was 20% in experiment [11], 70% in experiment [14], 30% in experiment [18] and 95% in experiment [19]. Also, the pest or weed control at 500 g/ha in [3] was 100%; in experiment [4], 95%; in experiment [5] it was 40%; in [6], 50%; in experiment [12], 40%; in [13] it was 30%. Moreover, the pest or weed control at 500 g/ha stood at 50% in experiment [15]; 50% in experiment [16]; 40% in experiment [17]; 60% in experiment [20]; 40% in experiment [21]; 30% in experiment [22].
Regarding `CS(=O)(=O)N(c1cc(-n2nnn(CCCF)c2=O)c(F)cc1Br)S(C)(=O)=O` [Compound 10, 1-(4-bromo-2-fluoro-5-[bis(N--methylsulfonyl)amino]phenyl]-1,4-dihydro-4-(3-fluoropropyl)-5H--tetrazol-5-one], the plant injury at 1000 g/ha in experiment [1] is 95%; in [2], 100%; in experiment [7], 90%; in experiment [8] it was 60%; in experiment [9], 95%; in [10], 90%. In addition, the plant injury at 1000 g/ha in [11] was determined as 30%; in experiment [14], 95%; in experiment [18], 80%; in experiment [19] it was 100%. Besides, the pest or weed control at 1000 g/ha in experiment [3], in experiment [4], in [5], in experiment [6], in experiment [12] and in [13] was 100% each time. The pest or weed control at 1000 g/ha in experiment [15] came out at 100%; in experiment [16] it was 95%; in experiment [17], 100%; in experiment [20], 100%; in experiment [21], 100%; in [22], 100%.
Consider `CCS(=O)(=O)N(C)c1cc(-n2nnn(CCCF)c2=O)c(F)cc1Cl` [Compound 12, 1-[4-chloro-2-fluoro-5-[(N--ethylsulfonyl-N--methyl)amino]phenyl]-1,4-dihydro-4-(3-fluoropropyl)-5H--tetrazol-5-one], for which the plant injury at 500 g/ha in [1] stood at 100%; in [2] it was 100%; in [7] it was 100%; in [8], 80%; in experiment [9], 70%; in experiment [10] it was 70%. The plant injury at 500 g/ha in experiment [11] turned out to be 30%; in experiment [14], 90%; in experiment [18], 80%; in [19], 100%. Further, the pest or weed control at 500 g/ha in experiment [3] is 100%; in experiment [4], 100%; in [5], 100%; in experiment [6], 100%; in experiment [12], 70%; in [13], 70%. For the same compound, the pest or weed control at 500 g/ha was found to be 70% in experiment [15]; 100% in experiment [16]; 100% in experiment [17]; 100% in experiment [20]; 100% in [21]; 100% in experiment [22].
With `CCN(c1cc(-n2nnn(CCCF)c2=O)c(F)cc1Cl)S(=O)(=O)CC` [Compound 13, 1-[4-chloro-2-fluoro-5-[(N--ethyl-N--ehtylsulfonyl)amino]phenyl]-1,4-dihydro-4-(3-fluoropropyl)-5H--tetrazol-5-one], the plant injury at 1000 g/ha in experiment [1] came out at 100%; in experiment [2] it was 95%; in [7] it was 100%; in experiment [8], 100%; in experiment [9], 95%; in [10], 100%. In addition, the plant injury at 1000 g/ha turned out to be 100% in experiment [11], 100% in [14], 95% in [18] and 100% in experiment [19]. Moreover, the pest or weed control at 1000 g/ha in [3], in experiment [4], in experiment [5], in [6], in experiment [12] and in experiment [13] was 100% each time. For the same compound, the pest or weed control at 1000 g/ha in [15] stood at 100%; in [16], 100%; in experiment [17], 100%; in experiment [20], 95%; in experiment [21], 100%; in experiment [22], 100%.
`CCS(=O)(=O)N(COC)c1cc(-n2nnn(CCCF)c2=O)c(F)cc1Cl` [Compound 15, 1-[4-chloro-2-fluoro-5-[(N---ethylsulfonyl-N--methoxymethyl)amino]-phenyl]-1,4-dihydro-4-(3-fluoropropyl)-5H--tetrazol-5-one]: the plant injury at 500 g/ha stood at 100% in [1]; 100% in [2]; 100% in experiment [7]; 100% in experiment [8]; 95% in experiment [9]; 95% in experiment [10]. The plant injury at 500 g/ha in experiment [11] came to 60%; in experiment [14], 100%; in [18], 95%; in experiment [19], 100%. Also, the pest or weed control at 500 g/ha in experiment [3] worked out at 100%; in experiment [4] it was 100%; in [5], 100%; in [6], 100%; in [12] it was 80%; in [13], 80%. The pest or weed control at 500 g/ha in experiment [15] is 90%; in [16] it was 100%; in [17], 100%; in [20], 100%; in [21], 100%; in experiment [22], 80%.
